From patent US12559504B2, “Benzotriazole derivative” (UBE CORPORATION, priority 2019, dated 2026)

Tests used:
NQO1 [1] = experiment: NQO1 enzyme induction test (in vitro) in Hepa1c1c7 cells; assay type: cell-based; settings: Mus musculus, Hepa-1c1c7, 48 h, concentration to elevate the NQO1 activity by 1.5 times, about 48 hours, read-out: EC150
In short: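 Mouse Hepa1c1c7 cells treated about 48 h with compound (0.1% DMSO final), then lysed. NQO1 activity read as MTT reduction at 540 nm with menadione substrate, 5 min at room temperature, and corrected for cell number by CellTiter-Glo. EC150 is the concentration raising NQO1 activity 1.5-fold.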

NQO1 [2] = experiment: NQO1 expression induction test in mouse kidney (single administration); assay type: in vivo; settings: Mus musculus, po, 6 h, BALB/c mouse kidney, 6 hours after administration, ratio to control group
In short: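 Female BALB/c mice received a single oral dose of compound in 0.5% methylcellulose, with untreated mice as controls. Six hours later, left-kidney NQO1 mRNA was measured by SYBR real-time RT-PCR normalised to GAPDH. Induction was expressed as the ratio of mean treated to mean control expression.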

[3] = Metabolism test using human liver microsome fractions; assay type: in vitro ADME; settings: human liver microsomes, test compound 10 μmol/L, NADPH and UDP-glucuronic acid, 37° C.
In short: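 Compound depletion at 10 μmol/L final, 37 °C, followed by UV-HPLC of acetonitrile-quenched aliquots taken 0, 5, 10, 15, 20, 30 min; incubations contained microsomes (1 mg protein, human or monkey) with NADPH and UDPGA cofactors. Rate = slope over linear range.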

[4] = biological target: T1, GST fusion human Keap1 (amino acid residue: 325-624) protein (Homo sapiens, UniProt Q14145); experiment: Keap1-Nrf2 binding inhibition test (fluorescence polarization); settings: compound concentration of 100 nM; read-out: inhibition rate
T1 construct: GST fusion human Keap1 (amino acid residue: 325-624) protein; purchased Protein tech Ag0779
In short: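 Fluorescence polarization with FITC-labelled Nrf2 peptide (FITC-Ahx-LDEETGEFL-NH2) and GST-human Keap1 (325-624) in 20 mM Tris pH 7.5, 150 mM NaCl, 0.05% Tween 20, 5 mM DTT, BSA; 30 min at room temperature, ex 482/em 530 nm. Percent inhibition at 100 nM compound, Keap1-free wells = 100%.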

T1 sequence (Q14145 325-624): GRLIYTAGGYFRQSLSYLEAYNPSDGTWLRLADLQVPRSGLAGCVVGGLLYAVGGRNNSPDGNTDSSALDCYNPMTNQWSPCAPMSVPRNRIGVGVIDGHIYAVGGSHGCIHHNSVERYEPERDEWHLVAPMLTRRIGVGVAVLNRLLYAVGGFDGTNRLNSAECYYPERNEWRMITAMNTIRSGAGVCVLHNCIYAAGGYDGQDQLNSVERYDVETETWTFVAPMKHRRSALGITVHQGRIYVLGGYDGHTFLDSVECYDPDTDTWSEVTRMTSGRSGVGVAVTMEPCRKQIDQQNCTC

Row | Compound | inhibition at 0.1 µM [4] [%] | EC (1.5-fold NQO1 activity) (NQO1 [1]) [µM] | fold induction at 30 mg/kg (NQO1 [2]) | Human metabolic rate [3] | fold induction at 20 mg/kg (NQO1 [2])
1 | CC[C@@H]1CN(Cc2cc(C(c3ccc4c(nnn4C)c3C)C(C)(C)C(=O)O)ccc2C)Cc2c(cnc3ccccc23)O1 (stereo partly drawn) [Example 19-(b), 3-(1,4-dimethyl-1H-benzo[d][1,2,3]triazol-5-yl)-3-(3-(((R)-4-ethyl-3,4-dihydro-[1,4]oxazepino[7,6-c]quinolin-2(1H)-yl)methyl)-4-methylphenyl)-2,2-dimethylpropanoic Acid] | ≥ 50 | 0.0005 to 0.005 | ≤ 3 | E (metabolic rate≥250 pmol/min/mg protein) | –
2 | CC[C@@H]1CN(Cc2cc(C(c3ccc4c(nnn4C)c3C)C(C)(C)C(=O)O)ccc2C)Cc2cc3cccnc3cc2O1 (stereo partly drawn) [Example 11-(b), 3-(1,4-dimethyl-1H-benzo[d][1,2,3]triazol-5-yl)-3-(3-(((R)-2-ethyl-2,3-dihydro-[1,4]oxazepino[6,7-g]quinolin-4(5H)-yl)methyl)-4-methylphenyl)-2,2-dimethylpropanoic Acid] | ≥ 50 | 0.0005 to 0.005 | > 6 | D (200≤metabolic rate<250 pmol/min/me protein) | –
3 | CC[C@@H]1CN(Cc2cc(C(c3ccc4c(nnn4C)c3C)C(C)(C)C(=O)O)ccc2C)Cc2cc3nn(C)cc3cc2O1 (stereo partly drawn) [Example 66-(b), 3-(1,4-dimethyl-1H-benzo[d][1,2,3]triazol-5-yl)-3-(3-(((R)-6-ethyl-2-methyl-2,6,7,9-tetrahydro-8H-[1,4]oxazepino[7,6-f]indazol-8-yl)methyl)-4-methylphenyl)-2,2-dimethylpropanoic Acid] | ≥ 50 | 0.0005 to 0.005 | – | E (metabolic rate≥250 pmol/min/mg protein) | > 6
4 | CC[C@@H]1CN(Cc2cc(C(c3ccc4c(nnn4C)c3C)C(C)(C)C(=O)O)ccc2C)Cc2c(ccc3cnn(C)c23)O1 (stereo partly drawn) [Example 21-(b), 3-(1,4-dimethyl-1H-benzo[d][1,2, 3)triazol-5-yl)-3-(3-(((R)-7-ethyl-1-methyl-1,7,8,10-tetrahydro-9H-(1,4]oxazepino[7,6-g]indazol-9-yl)methyl)-4-methylphenyl)-2,2-dimethylpropanoic Acid] | ≥ 50 | 0.05 to 0.5 | ≤ 3 | D (200≤metabolic rate<250 pmol/min/me protein) | –
5 | CC[C@@H]1CN(Cc2cc(C(c3ccc4c(nnn4C)c3C)C(C)(C)C(=O)O)ccc2C)Cc2cc3cn(C)nc3cc2O1 (stereo partly drawn) [Example 51-(b), 3-(1,4-dimethyl-1H-benzo[d][1,2,3]triazol-5-yl)-3-(3-(((R)-8-ethyl-2-methyl-2,5,7,8-tetrahydro-6H-[1,4]oxazepino[6,7-f]indazol-6-yl)methyl)-4-methylphenyl)-2,2-dimethylpropanoic Acid] | ≥ 50 | 0.0005 to 0.005 | > 6 | B (100≤metabolic rate<150 pmol/min/mg protein) | –
6 | CC[C@@H]1CN(Cc2cc(C(c3ccc4c(nnn4C)c3C)C(C)(C)C(=O)O)ccc2C)Cc2c(ccc3cccnc23)O1 (stereo partly drawn) [Example 17-(b), 3-(1,4-dimethyl-1H-benzo[d][1,2,3]triazol-5-yl)-3-(3-(((R)-8-ethyl-8,9-dihydro-[1,4]oxazepino[7,6-h]quinolin-10 (11H)-yl)methyl)-4-methylphenyl)-2,2-dimethylpropanoic Acid] | ≥ 50 | 0.005 to 0.05 | 3 to 6 | E (metabolic rate≥250 pmol/min/mg protein) | –
7 | CC[C@@H]1CN(Cc2cc(C(CC(=O)O)c3ccc4c(nnn4C)c3C)ccc2C)Cc2cc3ncccc3cc2O1 (stereo partly drawn) [Example 56-(b), 3-(1,4-dimethyl-1H-benzo[d][1,2,3]triazol-5-yl)-3-(3-(((R)-2-ethyl-2,3-dihydro-[1,4]oxazepino[7,6-g]quinolin-4(5H)-yl)methyl)-4-methylphenyl)propanoic acid] | ≥ 50 | 0.0005 to 0.005 | 3 to 6 | E (metabolic rate≥250 pmol/min/mg protein) | –
8 | CC[C@@H]1CN(Cc2cc(C(c3ccc4c(nnn4C)c3C)C(C)(C)C(=O)O)ccc2C)Cc2cc3c(cc2O1)CCC3 (stereo partly drawn) [Example 3-(b), 3-(1,4-dimethyl-1H-benzo[d][1,2,3]triazol-5-yl)-3-(3-(((R)-2-ethyl-2,3,5,7,8,9-hexahydro-4H-indeno[5,6-f][1,4]oxazepin-4-yl)methyl)-4-methylphenyl)-2,2-dimethylpropanoic Acid] | ≥ 50 | 0.005 to 0.05 | > 6 | C (150≤metabolic rate<200 pmol/min/mg protein) | –

Second part, led by results:

Row | inhibition at 0.1 µM [4] [%] | Compound | EC (1.5-fold NQO1 activity) (NQO1 [1]) [µM] | fold induction at 30 mg/kg (NQO1 [2]) | Human metabolic rate [3] | fold induction at 20 mg/kg (NQO1 [2])
9 | ≥ 50 | CC[C@@H]1CN(Cc2cc(C(c3ccc4c(nnn4C)c3C)C(C)(C)C(=O)O)ccc2C)Cc2ccc3c(c2O1)OC(F)(F)O3 (stereo partly drawn) [Example 2-(b), 3-(1,4-dimethyl-1H-benzo[d][1,2,3]triazol-5-yl)-3-(3-(((R)-9-ethyl-2,2-difluoro-8,9-dihydro-[1,3]dioxolo[4′,5′:3,4]benzo[1,2-f][1,4]oxazepin-7(6H)-yl)methyl)-4-methylphenyl)-2,2-dimethylpropanoic Acid] | 0.0005 to 0.005 | 3 to 6 | A (metabolic rate<100 pmol/min/mg protein) | –
10 | ≥ 50 | CC[C@@H]1CN(Cc2cc(C(c3ccc4c(nnn4C)c3C)C(C)(C)C(=O)O)ccc2C)Cc2ccc3cnccc3c2O1.O=C(O)C(F)(F)F.O=C(O)C(F)(F)F (stereo partly drawn) [Example 55-(b), 3-(1,4-dimethyl-1H-benzo[d][1,2,3]triazol-5-yl)-3-(3-(((R)-2-ethyl-2,3-dihydro-[1,4]oxazepino[7,6-f]isoquinolin-4(5H)-yl)methyl)-4-methylphenyl)-2,2-dimethylpropanoic Acid Ditrifluoroacetate] | 0.0005 to 0.005 | ≤ 3 | C (150≤metabolic rate<200 pmol/min/mg protein) | –
11 | ≥ 50 | CC[C@@H]1CN(Cc2cc(C(c3ccc4c(nnn4C)c3C)C(C)(C)C(=O)O)ccc2C)Cc2cc3nccc(Cl)c3cc2O1 (stereo partly drawn) [Example 69, 3-(3-(((R)-10-chloro-2-ethyl-2,3-dihydro-[1,4]oxazepino[7,6-g]quinolin-4 (5H)-yl)methyl)-4-methylphenyl)-3-(1,4-dimethyl-1H-benzo[d][1,2, 3]triazol-5-yl)-2,2-dimethylpropanoic Acid] | < 0.0005 | – | D (200≤metabolic rate<250 pmol/min/me protein) | 3 to 6
12 | ≥ 50 | CC[C@@H]1CN(Cc2cc(C(c3ccc4c(nnn4C)c3C)C(C)(C)C(=O)O)ccc2C)Cc2cc3ccsc3cc2O1 (stereo partly drawn) [Example 72-(b), 3-(1,4-dimethyl-1H-benzo[d][1,2,3]triazol-5-yl)-3-(3-(((R)-2-ethyl-2,3-dihydrothieno[2′,3′:4,5]benzo[1,2-f][1,4]oxazepin-4(5H)-yl)methyl)-4-methylphenyl)-2,2-dimethylpropanoic Acid] | 0.005 to 0.05 | – | A (metabolic rate<100 pmol/min/mg protein) | ≤ 3
13 | ≥ 50 | CC[C@@H]1CN(Cc2cc(C(c3ccc4c(nnn4C)c3C)C(C)(C)C(=O)O)ccc2C)Cc2cc3c(cc2O1)S(=O)(=O)CC3 (stereo partly drawn) [Example 74-(b), 3-(1,4-dimethyl-1H-benzo[d][1,2,3]triazol-5-yl)-3-(3-(((R)-2-ethyl-9,9-dioxide-2,3,7,8-tetrahydrothieno[2′,3′:4,5]benzo[1,2-f][1,4]oxazepin-4(5H)-yl)methyl)-4-methylphenyl)-2,2-dimethylpropanoic Acid] | 0.0005 to 0.005 | – | B (100≤metabolic rate<150 pmol/min/mg protein) | 3 to 6
14 | ≥ 50 | CC[C@@H]1CN(Cc2cc(C(c3ccc4c(nnn4C)c3C)C(C)(C)C(=O)O)ccc2C)Cc2cc3cnn(C)c3cc2O1 (stereo partly drawn) [Example 50-(b), 3-(1,4-dimethyl-1H-benzo[d][1,2,3]triazol-5-yl)-3-(3-(((R)-8-ethyl-1-methyl-1,5,7,8-tetrahydro-6H-[1,4]oxazepino[6,7-f]indazol-6-yl)methyl)-4-methylphenyl)-2,2-dimethylpropanoic Acid] | 0.0005 to 0.005 | > 6 | C (150≤metabolic rate<200 pmol/min/mg protein) | –
